Results on 22 compounds are retold here after patent US8673950B2, “Dihydrooxazol-2-amine derivatives” (Hoffmann-LaRoche Inc., priority 2010, dated 2014).

The target of one test is mouse TAAR1 (Mus musculus (Mouse), UniProt Q923Y8). Put plainly: Radioligand binding assay on mouse TAAR1. As to conditions: mouse TAAR1, membranes of stably transfected HEK-293 cells; first value of cell mouse/rat. Here is the method: (§1) Construction of TAAR Expression Plasmids and Stably Transfected Cell Lines
(§2) For the construction of expression plasmids the coding sequences of human, rat and mouse TAAR 1 were amplified from genomic DNA essentially as described by Lindemann et al.. The Expand High Fidelity PCR System (Roche Diagnostics) was used with 1.5 mM Mg^2+ and purified PCR products were cloned into pCR2.1-TOPO cloning vector (Invitrogen) following the instructions of the manufacturer. PCR products were subcloned into the pIRESneo2 vector (BD Clontech, Palo Alto, Calif.), and expression vectors were sequence verified before introduction in cell lines.
(§3) HEK293 cells (ATCC # CRL-1573) were cultured essentially as described by Lindemann et al. (2005). For the generation of stably transfected cell lines HEK293 cells were transfected with the pIRESneo2 expression plasmids containing the TAAR coding sequences (described above) with Lipofectamine 2000 (Invitrogen) according to the instructions of the manufacturer, and 24 hrs post transfection the culture medium was supplemented with 1 mg/ml G418 (Sigma, Buchs, Switzerland). After a culture period of about 10 d clones were isolated, expanded and tested for responsiveness to trace amines (all compounds purchased from Sigma) with the cAMP Biotrak Enzyme immunoassay (EIA) System (Amersham) following the non-acetylation EIA procedure provided by the manufacturer.
Radioligand Binding Assay on Mouse TAAR1
(§4) Membrane Preparation and Radioligand Binding.
(§5) HEK-293 cells stably expressing mouse TAAR1 were maintained at 37° C. and 5% CO2 in DMEM high glucose medium, containing fetal calf serum (10%, heat inactivated for 30 min at 56° C.), penicillin/streptomycin (1%), and 375 μg/ml geneticin (Gibco). Cells were released from culture flasks using trypsin/EDTA, harvested, washed twice with ice-cold PBS (without Ca^2+ and Mg^2+), pelleted at 1'000 rpm for 5 min at 4° C., frozen and stored at −80° C. Frozen pellets were suspended in 20 ml HEPES-NaOH (20 mM, pH 7.4) containing 10 mM EDTA and homogenized with a Polytron (PT 6000, Kinematica) at 14'000 rpm for 20 s. The homogenate was centrifuged at 48'000×g for 30 min at 4° C. Subsequently, the supernatant was removed and discarded, and the pellet resuspended in 20 ml HEPES-NaOH (20 mM, pH 7.4) containing 0.1 mM EDTA using the Polytron (20 s at 14'000 rpm). This procedure was repeated and the final pellet resuspended in HEPES-NaOH containing 0.1 mM EDTA and homogenized using the Polytron. Typically, aliquots of 2 ml membrane portions were stored at −80° C. With each new membrane batch the dissociation constant (Kd) was determined via a saturation curve. The TAAR1 radioligand ^3[H]-(S)-4-[(ethyl-phenyl-amino)-methyl]-4,5-dihydro-oxazol-2-ylamine (described in WO 2008/098857) was used at a concentration equal to the calculated Kd value, that was usually around 0.7 nM, resulting in the binding of approximately 0.5% of the radioligand and a specific binding representing approximately 70% of the total binding. Nonspecific binding was defined as the amount of ^3[H]-(S)-4-[(ethyl-phenyl-amino)-methyl]-4,5-dihydro-oxazol-2-ylamine bound in the presence of 10 μM unlabeled ligand. All compounds were tested at a broad range of concentrations (10 μM to 10 μM) in duplicates. […] The 96 deep well plates were incubated for 1 hr at 4° C. Incubations were terminated by rapid filtration through Unifilter-96 plates (Packard Instrument Company) and glass filters GF/C (Perkin Elmer) presoaked for 1 hr in polyethylenimine (0.3%) and washed 3 times with 1 ml of cold binding buffer. After addition of 45 μl of Microscint 40 (PerkinElmer) the Unifilter-96 plate was sealed and after 1 hr the radioactivity counted using a TopCount Microplate Scintillation Counter (Packard Instrument Company).

For a further test, the target named is rat TAAR1 (Rattus norvegicus (Rat), UniProt Q923Y9). The test is described as follows: Radioligand binding assay on rat TAAR1. The note with it: rat TAAR1, membranes of stably transfected HEK-293 cells; second value of cell mouse/rat. Here is the method: as §1, §2, §3
Chain of rat TAAR1 (Q923Y9 whole entry): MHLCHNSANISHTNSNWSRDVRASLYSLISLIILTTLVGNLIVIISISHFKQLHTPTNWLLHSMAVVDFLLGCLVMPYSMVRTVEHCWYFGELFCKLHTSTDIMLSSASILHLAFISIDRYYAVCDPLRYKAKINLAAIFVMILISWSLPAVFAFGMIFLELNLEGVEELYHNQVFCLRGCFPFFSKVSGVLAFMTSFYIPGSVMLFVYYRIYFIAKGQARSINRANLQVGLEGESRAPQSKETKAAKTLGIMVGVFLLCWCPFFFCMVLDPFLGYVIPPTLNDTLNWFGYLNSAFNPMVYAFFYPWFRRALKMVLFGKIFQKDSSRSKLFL
Radioligand Binding Assay on Rat TAAR1
as §4
as §5, with “expressing rat” for “expressing mouse”, “curve. […]” for “curve. The TAAR1 radioligand ^3[H]-(S)-4-[(ethyl-phenyl-amino)-methyl]-4,5-dihydro-oxazol-2-ylamine (described in WO 2008/098857) was used at a concentration equal to the calculated Kd value, that was usually around 0.7 nM, resulting in the binding of approximately 0.5% of the radioligand and a specific binding representing approximately 70% of the total binding.”, “(10 pM” for “(10 μM”

The Ki is a dissociation constant, usually derived from enzyme kinetics or from competition with a known ligand. The low end stands for a stronger hold on the target, the high end for a looser hold on the target.

Chain of mouse TAAR1 (Q923Y8 whole entry): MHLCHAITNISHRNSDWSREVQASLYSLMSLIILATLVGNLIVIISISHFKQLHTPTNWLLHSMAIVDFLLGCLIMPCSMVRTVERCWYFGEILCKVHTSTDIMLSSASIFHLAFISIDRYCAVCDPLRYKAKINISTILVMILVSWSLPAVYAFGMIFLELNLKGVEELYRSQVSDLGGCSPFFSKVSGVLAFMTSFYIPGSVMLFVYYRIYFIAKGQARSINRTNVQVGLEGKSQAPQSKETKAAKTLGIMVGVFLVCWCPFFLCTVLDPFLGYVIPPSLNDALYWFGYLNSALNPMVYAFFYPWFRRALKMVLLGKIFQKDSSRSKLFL

As to `NC1=N[C@@H](CCc2ccc(Nc3cccc4cccnc34)cc2)CO1` [Example 1, (S)-4-(4-(Quinolin-8-ylamino)phenethyl)-4,5-dihydrooxazol-2-amine], the Ki worked out at 0.0035 µM at mouse TAAR1 and 0.0006 µM at rat TAAR1.
As to `NC1=N[C@@H](CCc2ccc(Nc3cccc4ccccc34)cc2)CO1` [Example 2, (S)-4-(4-(Naphthalen-1-ylamino)phenethyl)-4,5-dihydrooxazol-2-amine], the Ki came out at 0.0021 µM on mouse TAAR1 and 0.0001 µM at rat TAAR1.
As for `NC1=N[C@@H](CCc2ccc(Nc3ccc(F)cn3)cc2)CO1` [Example 3, (S)-4-(4-(5-Fluoropyridin-2-ylamino)phenethyl)-4,5-dihydrooxazol-2-amine], the results for the Ki on mouse TAAR1 and on rat TAAR1 were 0.0022 µM and 0.0002 µM, respectively.
Taken in the same sequence, the figures for `Cc1cc(Nc2ccc(CC[C@H]3COC(N)=N3)cc2)c2ncccc2c1` [Example 4, (S)-4-(4-(6-Methylquinolin-8-ylamino)phenethyl)-4,5-dihydrooxazol-2-amine] were 0.0021 µM and 0.0006 µM.
Take `NC1=N[C@@H](CCc2ccc(Nc3cccc4cccc(Cl)c34)cc2)CO1` [Example 5, (S)-4-(4-(8-Chloronaphthalen-1-ylamino)phenethyl)-4,5-dihydrooxazol-2-amine]: the Ki at mouse TAAR1 is 0.0262 µM; at rat TAAR1 it was 0.0033 µM.
For the compound `NC1=N[C@@H](CCc2ccc(Nc3ccc(Cl)cc3)cc2)CO1` [Example 6, (S)-4-{2-[4-(4-Chloro-phenylamino)-phenyl]-ethyl}-4,5-dihydro-oxazol-2-ylamine], the Ki at mouse TAAR1 was 0.0002 µM; at rat TAAR1 it was 0.0001 µM.
Take `NC1=N[C@@H](CCc2ccc(Nc3ccc(Cl)cc3F)cc2)CO1` [Example 7, (S)-4-{2-[4-(4-Chloro-2-fluoro-phenylamino)-phenyl]-ethyl}-4,5-dihydro-oxazol-2-ylamine]: the values for the Ki on mouse TAAR1 and on rat TAAR1 were 0.0017 µM and 0.0001 µM, respectively.
On the same counts, the results for `NC1=N[C@@H](CCc2ccc(Nc3ccc(C(F)(F)F)cc3)cc2)CO1` [Example 8, (S)-4-{2-[4-(4-Trifluoromethyl-phenylamino)-phenyl]-ethyl}-4,5-dihydro-oxazol-2-ylamine] are 0.0002 µM and 0.0002 µM.
`COc1ccc(Nc2ccc(CC[C@H]3COC(N)=N3)cc2)cc1` [Example 9, (S)-4-{2-[4-(4-Methoxy-phenylamino)-phenyl]-ethyl}-4,5-dihydro-oxazol-2-ylamine]: the Ki on mouse TAAR1 worked out at 0.0032 µM; at rat TAAR1 it was 0.0002 µM.
For the compound `Cc1cc(Nc2ccc(CC[C@H]3COC(N)=N3)cc2)ccc1OC(F)(F)F` [Example 10, (S)-4-(4-(3-Methyl-4-(trifluoromethoxy)phenylamino)phenethyl)-4,5-dihydrooxazol-2-amine], the Ki at mouse TAAR1 and at rat TAAR1 was 0.0001 µM each time.
Take `NC1=N[C@@H](CCc2ccc(Nc3ccc(C(F)(F)F)cn3)cc2)CO1` [Example 11, {4-[2-((S)-2-Amino-4,5-dihydro-oxazol-4-yl)-ethyl]-phenyl}-(5-trifluoromethyl-pyridin-2-yl)-amine]: the figures for the Ki at mouse TAAR1 and on rat TAAR1 were 0.0002 µM and 0.0004 µM, respectively.
Consider `N#Cc1ccc(N(c2ccc(CC[C@H]3COC(N)=N3)cc2)c2ccc(C#N)cn2)nc1` [Example 12, (S)-6,6′-(4-(2-(2-Amino-4,5-dihydrooxazol-4-yl)ethyl)phenylazanediyl)dinicotinonitrile], for which the affinity at mouse TAAR1 corresponds to a Ki of 0.111 µM.
As to `NC1=N[C@@H](CCc2ccc(Nc3ccccc3)cc2)CO1` [Example 13, (S)-4-[2-(4-Phenylamino-phenyl)-ethyl]-4,5-dihydro-oxazol-2-ylamine], the Ki on mouse TAAR1 came out at 0.0013 µM; on rat TAAR1, 0.0001 µM.
Taken in the same sequence, the figures for `Cc1ccc(Nc2ccc(CC[C@H]3COC(N)=N3)cc2)cc1` [Example 14, (S)-4-(4-(p-Tolylamino)phenethyl)-4,5-dihydrooxazol-2-amine] were 0.0008 µM and 0.0001 µM.
As to `NC1=N[C@@H](CCc2ccc(Nc3ccc(Cl)cn3)cc2)CO1` [Example 15, {4-[2-((S)-2-Amino-4,5-dihydro-oxazol-4-yl)-ethyl]-phenyl}-(5-chloro-pyridin-2-yl)-amine], the figures for the Ki at mouse TAAR1 and on rat TAAR1 were 0.0005 µM and 0.0001 µM, respectively.
On the same counts, the results for `N#Cc1ccc(Nc2ccc(CC[C@H]3COC(N)=N3)cc2)nc1` [Example 16, 6-{4-[2-((S)-2-Amino-4,5-dihydro-oxazol-4-yl)-ethyl]-phenylamino}-nicotinonitrile] are 0.0015 µM and 0.0004 µM.
Regarding `NC1=N[C@@H](CCc2ccc(Nc3cc(C(F)(F)F)ncn3)cc2)CO1` [Example 17, (S)-4-(4-(6-(Trifluoromethyl)pyrimidin-4-ylamino)phenethyl)-4,5-dihydrooxazol-2-amine], the Ki amounted to 0.0013 µM on mouse TAAR1 and 0.0012 µM at rat TAAR1.
Taken in the same sequence, the figures for `NC1=N[C@@H](CCc2ccc(Nc3ncc(Cl)cn3)cc2)CO1` [Example 18, {4-[2-((S)-2-Amino-4,5-dihydro-oxazol-4-yl)-ethyl]-phenyl}-(5-chloro-pyrimidin-2-yl)-amine] were 0.0012 µM and 0.0002 µM.
On the same counts, the results for `NC1=N[C@@H](CCc2ccc(Nc3ccc(Cl)c(Cl)c3)cc2)CO1` [Example 19, (S)-4-(4-(3,4-Dichlorophenylamino)phenethyl)-4,5-dihydrooxazol-2-amine] are 0.0002 µM and 0.0001 µM.
Regarding `NC1=N[C@@H](CCc2ccc(Nc3ncc(F)cn3)cc2)CO1` [Example 20, {4-[2-((S)-2-Amino-4,5-dihydro-oxazol-4-yl)-ethyl]-phenyl}-(5-fluoro-pyrimidin-2-yl)-amine], the Ki at mouse TAAR1 was 0.0224 µM; at rat TAAR1, 0.004 µM.
Taken in the same sequence, the figures for `NC1=N[C@@H](CCc2ccc(Nc3ncccc3F)cc2)CO1` [Example 21, {4-[2-((S)-2-Amino-4,5-dihydro-oxazol-4-yl)-ethyl]-phenyl}-(3-fluoro-pyridin-2-yl)-amine] were 0.02 µM and 0.0005 µM.
Taken in the same sequence, the figures for `NC1=N[C@@H](CCc2ccc(Nc3cc(F)ccn3)cc2)CO1` [Example 22, {4-[2-((S)-2-Amino-4,5-dihydro-oxazol-4-yl)-ethyl]-phenyl}-(4-fluoro-pyridin-2-yl)-amine] were 0.0034 µM and 0.0002 µM.
